Test system: 843126-344-R-J1-PDC complex spheroid viability
Experiment: Anticancer human tumor 843126-344-R-J1-PDC patient-derived melanoma cell line growth inhibition [POLQ]
Details: for IC50: curve of first compound; for viability, T/C: stronger effect = lower value
Procedure, shortened: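 Complex spheroid viability model combining PDC tumour cells with endothelial (HUVEC) and MSC stromal cells. Novobiocin, ART-558 or RP6685 were tested singly and in combination with standard and investigational anticancer drugs. Each was titrated in half-log steps from near clinical Cmax, or from 10 microM where Cmax was unknown.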

[1] = second compound 0.0316 µM, first compound 0.0316 µM
[2] = second compound 0.0316 µM, first compound 0.1 µM
[3] = second compound 0.0316 µM, first compound 0.316 µM
[4] = second compound 0.0316 µM, first compound 1 µM
[5] = second compound 0.0316 µM, first compound 3.16 µM
[6] = second compound 0.0316 µM, first compound 10 µM
[7] = second compound 0.1 µM, first compound 0.0316 µM
[8] = second compound 0.1 µM, first compound 0.1 µM
[9] = second compound 0.1 µM, first compound 0.316 µM
[10] = second compound 0.1 µM, first compound 1 µM
[11] = second compound 0.1 µM, first compound 3.16 µM
[12] = second compound 0.1 µM, first compound 10 µM
[13] = second compound 0.316 µM, first compound 0.0316 µM
[14] = second compound 0.316 µM, first compound 0.1 µM
[15] = second compound 0.316 µM, first compound 0.316 µM
[16] = second compound 0.316 µM, first compound 1 µM
[17] = second compound 0.316 µM, first compound 3.16 µM
[18] = second compound 0.316 µM, first compound 10 µM
[19] = second compound 1 µM, first compound 0.0316 µM
[20] = second compound 1 µM, first compound 0.1 µM
[21] = second compound 1 µM, first compound 0.316 µM
[22] = second compound 1 µM, first compound 1 µM
[23] = second compound 1 µM, first compound 3.16 µM
[24] = second compound 1 µM, first compound 10 µM
[25] = second compound 3.16 µM, first compound 0.0316 µM
[26] = second compound 3.16 µM, first compound 0.1 µM
[27] = second compound 3.16 µM, first compound 0.316 µM
[28] = second compound 3.16 µM, first compound 1 µM
[29] = second compound 3.16 µM, first compound 3.16 µM
[30] = second compound 3.16 µM, first compound 10 µM
[31] = second compound 10 µM, first compound 0.0316 µM
[32] = second compound 10 µM, first compound 0.1 µM
[33] = second compound 10 µM, first compound 0.316 µM
[34] = second compound 10 µM, first compound 1 µM
[35] = second compound 10 µM, first compound 3.16 µM
[36] = second compound 10 µM, first compound 10 µM
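For viability, T/C in this document: spheroids exposed to drugs for seven days before readout.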

`CCc1cc2c(N3CCc4c(cc(Cn5ccnc5)cc4-c4cn(C)nc4C(F)(F)F)C3=O)ccnc2c(OC)n1` + Cc1cccc(N(C)C(=O)C2C(O)CCN2c2nc(C)cc(C(F)(F)F)c2C#N)c1 was tested, and the IC50 (second compound 0.0316 µM) was > 10 µM, the IC50 (second compound 0.1 µM) was > 10 µM and the IC50 (second compound 0.316 µM) was > 10 µM. The IC50 (second compound 1 µM) was > 10 µM, the IC50 (second compound 3.16 µM) was > 10 µM and the IC50 (second compound 10 µM) was > 10 µM. It also gave a viability, T/C [1] of 91.3%, a viability, T/C [2] of 79.8% and a viability, T/C [3] of 80.6%. The viability, T/C [4] was 83.3%, the viability, T/C [5] was 69.9% and the viability, T/C [6] was 61.4%. The viability, T/C [7] was 90%, the viability, T/C [8] was 88.4% and the viability, T/C [9] was 87.1%. It also gave a viability, T/C [10] of 90%, a viability, T/C [11] of 72.3% and a viability, T/C [12] of 60.4%. It also gave a viability, T/C [13] of 99.6%, a viability, T/C [14] of 74.9% and a viability, T/C [15] of 86%. For the same molecule, the viability, T/C [16] was 78.5%, the viability, T/C [17] was 69% and the viability, T/C [18] was 61.2%. For the same molecule, the viability, T/C [19] was 101%, the viability, T/C [20] was 77.3% and the viability, T/C [21] was 86.3%. It also gave a viability, T/C [22] of 73.5%, a viability, T/C [23] of 68% and a viability, T/C [24] of 55.3%. It also gave a viability, T/C [25] of 100%, a viability, T/C [26] of 84.8% and a viability, T/C [27] of 79.3%. For the same molecule, the viability, T/C [28] was 72.4%, the viability, T/C [29] was 69.3% and the viability, T/C [30] was 63.1%. For the same molecule, the viability, T/C [31] was 88.2%, the viability, T/C [32] was 92.2% and the viability, T/C [33] was 75.5%. For the same molecule, the viability, T/C [34] was 68.8%, the viability, T/C [35] was 70.7% and the viability, T/C [36] was 64.4%.
`C=CC(=O)N1CCN(c2nc(=O)n(-c3c(C)ccnc3C(C)C)c3nc(-c4c(O)cccc4F)c(F)cc23)C(C)C1` (stereo not drawn) + COC1C(OC(N)=O)C(O)C(Oc2ccc3c(O)c(NC(=O)c4ccc(O)c(CC=C(C)C)c4)c(=O)oc3c2C)OC1(C)C was tested, and the IC50 (second compound 0.0316 µM) was > 10 µM, the IC50 (second compound 0.1 µM) was > 10 µM and the IC50 (second compound 0.316 µM) was > 10 µM. The IC50 (second compound 1 µM) was > 10 µM, the IC50 (second compound 3.16 µM) was > 10 µM and the IC50 (second compound 10 µM) was > 10 µM. The viability, T/C [1] was 98.3%, the viability, T/C [2] was 100% and the viability, T/C [3] was 97.4%. For the same molecule, the viability, T/C [4] was 89%, the viability, T/C [5] was 94.9% and the viability, T/C [6] was 71.4%. For the same molecule, the viability, T/C [7] was 110%, the viability, T/C [8] was 108% and the viability, T/C [9] was 101%. The viability, T/C [10] was 113%, the viability, T/C [11] was 92.8% and the viability, T/C [12] was 80.5%. For the same molecule, the viability, T/C [13] was 88.7%, the viability, T/C [14] was 111% and the viability, T/C [15] was 103%. It also gave a viability, T/C [16] of 85%, a viability, T/C [17] of 101% and a viability, T/C [18] of 78.6%. It also gave a viability, T/C [19] of 99.8%, a viability, T/C [20] of 95% and a viability, T/C [21] of 104%. The viability, T/C [22] was 108%, the viability, T/C [23] was 114% and the viability, T/C [24] was 68%. It also gave a viability, T/C [25] of 107%, a viability, T/C [26] of 74.1% and a viability, T/C [27] of 105%. It also gave a viability, T/C [28] of 113%, a viability, T/C [29] of 97.7% and a viability, T/C [30] of 77.7%. The viability, T/C [31] was 82.7%, the viability, T/C [32] was 107% and the viability, T/C [33] was 92.9%. For the same molecule, the viability, T/C [34] was 98.3%, the viability, T/C [35] was 104% and the viability, T/C [36] was 83.5%.
For `COc1ccc([C@@H](O)c2cc(-c3ncnc4cc(N5CCOCC5)ccc34)c(F)cc2Cl)nn1` + Nc1ccc(C#CCN(C(=O)Cc2ncc(C(F)(F)F)cc2C(F)(F)F)c2ccc(F)cc2)nn1, the IC50 (second compound 0.0316 µM) was > 10 µM, the IC50 (second compound 0.1 µM) was > 10 µM and the IC50 (second compound 0.316 µM) was > 10 µM. The IC50 (second compound 1 µM) was > 10 µM, the IC50 (second compound 3.16 µM) was > 10 µM and the IC50 (second compound 10 µM) was > 10 µM. For the same molecule, the viability, T/C [1] was 95.5%, the viability, T/C [2] was 94.9% and the viability, T/C [3] was 87.5%. It also gave a viability, T/C [4] of 87.9%, a viability, T/C [5] of 80.9% and a viability, T/C [6] of 62.9%. It also gave a viability, T/C [7] of 95.7%, a viability, T/C [8] of 95.8% and a viability, T/C [9] of 103%. For the same molecule, the viability, T/C [10] was 82.9%, the viability, T/C [11] was 96% and the viability, T/C [12] was 68.1%. The viability, T/C [13] was 86%, the viability, T/C [14] was 90.3% and the viability, T/C [15] was 87%. The viability, T/C [16] was 85.1%, the viability, T/C [17] was 79.5% and the viability, T/C [18] was 80.7%. For the same molecule, the viability, T/C [19] was 88.1%, the viability, T/C [20] was 102% and the viability, T/C [21] was 91.8%. The viability, T/C [22] was 88.5%, the viability, T/C [23] was 74.5% and the viability, T/C [24] was 64%. It also gave a viability, T/C [25] of 100%, a viability, T/C [26] of 99.3% and a viability, T/C [27] of 92%. For the same molecule, the viability, T/C [28] was 73.6%, the viability, T/C [29] was 77.8% and the viability, T/C [30] was 64.6%. It also gave a viability, T/C [31] of 80.2%, a viability, T/C [32] of 94.8% and a viability, T/C [33] of 85.4%. The viability, T/C [34] was 82.7%, the viability, T/C [35] was 78.2% and the viability, T/C [36] was 62.6%.
`O=C(c1cc(Cc2n[nH]c(=O)c3ccccc23)ccc1F)N1CCN(C(=O)C2CC2)CC1` + Nc1ccc(C#CCN(C(=O)Cc2ncc(C(F)(F)F)cc2C(F)(F)F)c2ccc(F)cc2)nn1 was tested, and the IC50 (second compound 0.0316 µM) was > 10 µM, the IC50 (second compound 0.1 µM) was > 10 µM and the IC50 (second compound 0.316 µM) was > 10 µM. For the same molecule, the IC50 (second compound 1 µM) was > 10 µM, the IC50 (second compound 3.16 µM) was > 10 µM and the IC50 (second compound 10 µM) was > 10 µM. For the same molecule, the viability, T/C [1] was 98.2%, the viability, T/C [2] was 73.7% and the viability, T/C [3] was 93.5%. It also gave a viability, T/C [4] of 90%, a viability, T/C [5] of 92.1% and a viability, T/C [6] of 75.4%. For the same molecule, the viability, T/C [7] was 90.1%, the viability, T/C [8] was 93.5% and the viability, T/C [9] was 86.9%. The viability, T/C [10] was 91.3%, the viability, T/C [11] was 82.7% and the viability, T/C [12] was 67.1%. It also gave a viability, T/C [13] of 102%, a viability, T/C [14] of 98% and a viability, T/C [15] of 84%. For the same molecule, the viability, T/C [16] was 84.1%, the viability, T/C [17] was 90.7% and the viability, T/C [18] was 80.2%. For the same molecule, the viability, T/C [19] was 93.1%, the viability, T/C [20] was 93.9% and the viability, T/C [21] was 84.3%. It also gave a viability, T/C [22] of 88.9%, a viability, T/C [23] of 84.2% and a viability, T/C [24] of 76.8%. The viability, T/C [25] was 92.7%, the viability, T/C [26] was 93.7% and the viability, T/C [27] was 85.8%. For the same molecule, the viability, T/C [28] was 92.2%, the viability, T/C [29] was 80.6% and the viability, T/C [30] was 82.6%. For the same molecule, the viability, T/C [31] was 80.7%, the viability, T/C [32] was 85.5% and the viability, T/C [33] was 88%. For the same molecule, the viability, T/C [34] was 92.7%, the viability, T/C [35] was 81.3% and the viability, T/C [36] was 68.7%.
